Experiments:
[1] = test system: CD69; test: Induction of CD69 in human whole blood; assay type: cell-based; details: 17 hrs incubation, CD69 surface staining, 100% set to 1 uM of resiquimod, average where assay repeated, read-out: hWB CD69 EC50
Experimental: Induction of Type I Interferon Genes (MX-1) and CD69 in Human Blood
The induction of Type I interferon (IFN) MX-1 genes and the B-cell activation marker CD69 are downstream events that occur upon activation of the TLR7 pathway. The following is a human whole blood assay that measures their induction in response to a TLR7 agonist.
Heparinized human whole blood was harvested from human subjects and treated with test TLR7 agonist compounds at 1 mM. The blood was diluted with RPMI 1640 media and Echo was used to predot 10 nL per well giving a final concentration of 1 uM (10 nL in 10 uL of blood). After mixing on a shaker for 30 sec, the plates were covered and placed in a 37° C. chamber for o/n=17 hrs. Fixing/lysis buffer was prepared (5×→1× in H2O, warm at 37° C.; Cat #BD 558049) and kept the perm buffer (on ice) for later use.
For surface markers staining (CD69): prepared surface Abs: 0.045 ul hCD14-FITC (ThermoFisher Cat #MHCD1401)+0.6 ul hCD19-ef450 (ThermoFisher Cat #48-0198-42)+1.5 ul hCD69-PE (cat #BD555531)+0.855 ul FACS buffer. Added 3 ul/well, spin 1000 rpm for 1 min and mixed on shaker for 30 sec, put on ice for 30 min. Stop stimulation after 30 minutes with 70 uL of prewarmed 1× fix/lysis buffer and use Feliex mate to resuspend (15 times, change tips for each plate) and incubate at 37 C for 10 minutes.
Centrifuge at 2000 rpm for 5 minutes aspirate with HCS plate washer, mix on shaker for 30 sec and then wash with 70 uL in dPBS and pelleted 2×s (2000 rpm for 5 min) and 50 ul wash in FACS buffer pelleted 1×s (2000 rpm for 5 min). Mix on shaker for 30 sec. For Intracellular markers staining (MX-1): Add 50 ul of BD Perm buffer III and mix on shaker for 30 sec. Incubate on ice for 30 minutes (in the dark). Wash with 50 uL of FACS buffer 2× (spin @2300 rpm×5 min after perm) followed by mixing on shaker for 30 sec. Resuspended in 20 ul of FACS buffer containing MX1 antibody ( )(4812)-Alexa 647: Novus Biologicals #NBP2-43704AF647) 20 ul FACS bf+0.8 ul hIgG+0.04 ul MX-1. Spin 1000 rpm for 1 min, mix on shaker for 30 se and the samples were incubated at RT in the dark for 45 minutes followed by washing 2×FACS buffer (spin @2300 rpm×5 min after perm). Resuspend 20 ul (35 uL total per well) of FACS buffer and cover with foil and place in 4° C. to read the following day. Plates were read on iQuePlus. The results were loaded into toolset and […] curves are generated in curve master. The y-axis 100% is set to 1 uM of resiquimod.

[2] = target: T1, human TLR7 (Homo sapiens, UniProt Q9NYK1); test: Human TLR7 agonist activity reporter assay (HEK-Blue TLR7 cells, SEAP reporter); assay type: cell-based; details: human TLR7 (hTLR7) reporter assay, SEAP readout after 18 h, average where assay repeated, read-out: TLR7 Agonism EC50
T1 construct: host or cells: HEK-Blue TLR7 cells (engineered human embryonic kidney cells)
T1 sequence (Q9NYK1 27-1049): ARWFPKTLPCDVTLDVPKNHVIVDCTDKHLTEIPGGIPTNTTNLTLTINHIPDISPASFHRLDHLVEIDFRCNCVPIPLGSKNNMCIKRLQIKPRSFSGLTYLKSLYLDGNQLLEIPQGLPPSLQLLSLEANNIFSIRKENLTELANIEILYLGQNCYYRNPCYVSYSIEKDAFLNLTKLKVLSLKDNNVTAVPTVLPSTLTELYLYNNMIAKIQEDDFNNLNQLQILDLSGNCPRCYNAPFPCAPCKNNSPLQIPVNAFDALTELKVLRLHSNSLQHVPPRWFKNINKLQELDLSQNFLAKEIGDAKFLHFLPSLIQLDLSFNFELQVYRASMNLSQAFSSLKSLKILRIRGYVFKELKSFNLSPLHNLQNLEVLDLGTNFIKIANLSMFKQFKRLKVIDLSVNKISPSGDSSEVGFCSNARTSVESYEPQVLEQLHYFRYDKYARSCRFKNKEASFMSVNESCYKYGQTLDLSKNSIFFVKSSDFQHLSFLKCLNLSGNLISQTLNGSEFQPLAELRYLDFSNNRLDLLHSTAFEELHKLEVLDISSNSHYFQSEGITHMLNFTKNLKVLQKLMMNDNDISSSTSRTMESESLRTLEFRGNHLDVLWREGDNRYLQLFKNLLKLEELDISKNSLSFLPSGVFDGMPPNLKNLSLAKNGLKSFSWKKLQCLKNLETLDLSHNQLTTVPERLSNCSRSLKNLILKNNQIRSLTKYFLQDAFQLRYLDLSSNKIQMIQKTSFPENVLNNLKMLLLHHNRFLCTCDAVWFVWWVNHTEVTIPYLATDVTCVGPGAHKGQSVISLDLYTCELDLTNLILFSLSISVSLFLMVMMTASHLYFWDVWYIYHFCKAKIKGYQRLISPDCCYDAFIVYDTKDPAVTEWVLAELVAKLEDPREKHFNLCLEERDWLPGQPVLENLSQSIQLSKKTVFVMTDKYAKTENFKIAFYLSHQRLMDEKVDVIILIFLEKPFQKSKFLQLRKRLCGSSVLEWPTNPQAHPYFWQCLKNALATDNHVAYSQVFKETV
Experimental: Human TLR7 Agonist Activity Assay
This procedure describes a method for assaying human TLR7 (hTLR7) agonist activity of the compounds disclosed in this specification.
HEK-Blue™ TLR7 cells were added to each well of a 384-well tissue-culture plate (15,000 cells per well) and incubated 16-18 h at 37° C., 5% CO2. Compounds (100 nl) were dispensed into wells containing the HEK-Blue™ TLR cells and the treated cells were incubated at 37° C., 5% CO2. After 18 h treatment ten microliters of freshly-prepared Quanti-Blue™ reagent (Invivogen) was added to each well, incubated for 30 min (37° C., 5% CO2) and SEAP levels measured using an Envision plate reader (OD=620 nm).

| SMILES | EC50 [1] [nM] | EC50 [2] [nM] |
| --- | --- | --- |
| CCC[C@@H](CCO)Nc1nc(N)nc2cnn(Cc3ccc(C(=O)N4CC5(COC5)C4)c4cccnc34)c12 [Compound 127, (3S)-3-({5-amino-1-[(5-{2-oxa-6-azaspiro[3.3]heptane-6-carbonyl}quinolin-8-yl)methyl]-1H-pyrazolo[4,3-d]pyrimidin-7-yl}amino)hexan-1-ol] | 91.9 | 54.8 |
| Cc1cc(CNc2nc(N)nc3cnn(Cc4ccc(C(=O)NC5CCN(C)CC5)c5cccnc45)c23)no1 [Compound 122, 8-[(5-amino-7-{[(5-methyl-1,2-oxazol-3-yl)methyl]amino}-1H-pyrazolo[4,3-d]pyrimidin-1-yl)methyl]-N-(1-methylpiperidin-4-yl)quinoline-5-carboxamide] | 54 | 309 |
| CCC[C@@H](CCO)Nc1nc(N)nc2cnn(Cc3ccc(C(=O)N4CCN(C)CC4)c4cccnc34)c12 [Compound 112, (3S)-3-[(5-amino-1-{[5-(4-methylpiperazine-1-carbonyl)quinolin-8-yl]methyl}-1H-pyrazolo[4,3-d]pyrimidin-7-yl)amino]hexan-1-ol] | 5.1 | 4.9 |
| CCC[C@@H](CCO)Nc1nc(N)nc2cnn(Cc3ccc(C(=O)N4CCOCC4)c4cccnc34)c12 [Compound 113, (3S)-3-[(5-amino-1-{[5-(morpholine-4-carbonyl)quinolin-8-yl]methyl}-1H-pyrazolo[4,3-d]pyrimidin-7-yl)amino]hexan-1-ol] | 132 | 186 |
| CCC[C@@H](CCO)Nc1nc(N)nc2cnn(Cc3ccc(C(=O)N4CCN(CCO)CC4)c4cccnc34)c12 [Compound 111, (3S)-3-{[5-amino-1-({5-[4-(2-hydroxyethyl)piperazine-1-carbonyl]quinolin-8-yl}methyl)-1H-pyrazolo[4,3-d]pyrimidin-7-yl]amino}hexan-1-ol] | 57.7 | 66 |
| CCC[C@@H](CCO)Nc1nc(N)nc2cnn(Cc3ccc(C(=O)N4CC(CCOC)C4)c4cccnc34)c12 [Compound 128, (3S)-3-{[5-amino-1-({5-[3-(2-methoxyethyl)azetidine-1-carbonyl]quinolin-8-yl}methyl)-1H-pyrazolo[4,3-d]pyrimidin-7-yl]amino}hexan-1-ol] | 102 | 54.6 |
| CCCCNc1nc(N)nc2cnn(Cc3ccc(CNC4CCC4)c4cccnc34)c12 [Compound 101, N7-butyl-1-({5-[(cyclobutylamino)methyl]quinolin-8-yl}methyl)-1H-pyrazolo[4,3-d]pyrimidine-5,7-diamine] | 47.1 | 93.3 |
| Nc1nc(NCC2CC3(CC3)C2)c2c(cnn2Cc2ccc(C(=O)N3CCNC(=O)C3)c3cccnc23)n1 [Compound 117, 4-[8-({5-amino-7-[({spiro[2.3]hexan-5-yl}methyl)amino]-1H-pyrazolo[4,3-d]pyrimidin-1-yl}methyl)quinoline-5-carbonyl]piperazin-2-one] | 266 | 447 |
| CCC[C@@H](CCO)Nc1nc(N)nc2c(C)nn(Cc3ccc(C(=O)NC4CCOCC4)c4cccnc34)c12 [Compound 119, 8-[(5-amino-7-{[(3S)-1-hydroxyhexan-3-yl]amino}-3-methyl-1H-pyrazolo[4,3-d]pyrimidin-1-yl)methyl]-N-(oxan-4-yl)quinoline-5-carboxamide] | 1000 | 606 |
| CCC[C@@H](CCO)Nc1nc(N)nc2cnn(Cc3ccc(C(=O)N4CCNC(=O)C4)c4cccnc34)c12 [Compound 118, 4-{8-[(5-amino-7-{[(3S)-1-hydroxyhexan-3-yl]amino}-1H-pyrazolo[4,3-d]pyrimidin-1-yl)methyl]quinoline-5-carbonyl}piperazin-2-one] | 208 | 311 |
| CCC[C@@H](CCO)Nc1nc(N)nc2cnn(Cc3ccc(C(=O)N4CC5(CNC5)C4)c4cccnc34)c12 [Compound 124, (3S)-3-({5-amino-1-[(5-{2,6-diazaspiro[3.3]heptane-2-carbonyl}quinolin-8-yl)methyl]-1H-pyrazolo[4,3-d]pyrimidin-7-yl}amino)hexan-1-ol] | 248 | 440 |
| CCC[C@@H](CCO)Nc1nc(N)nc2c(C)nn(Cc3ccc(C(=O)N4CCN(CCO)CC4)c4cccnc34)c12 [Compound 120, (3S)-3-{[5-amino-1-({5-[4-(2-hydroxyethyl)piperazine-1-carbonyl]quinolin-8-yl}methyl)-3-methyl-1H-pyrazolo[4,3-d]pyrimidin-7-yl]amino}hexan-1-ol] | 1000 | 882 |
| Cc1cc(CNc2nc(N)nc3cnn(Cc4ccc(C(=O)N5CC6(CN(C)C6)C5)c5cccnc45)c23)no1 [Compound 138, N7-[(5-methyl-1,2-oxazol-3-yl)methyl]-1-[(5-{6-methyl-2,6-diazaspiro[3.3]heptane-2-carbonyl}quinolin-8-yl)methyl]-1H-pyrazolo[4,3-d]pyrimidine-5,7-diamine] | 41.7 | 275 |
| CCCCNc1nc(N)nc2cnn(Cc3ccc(CNC4CCOCC4)c4cccnc34)c12 [Compound 109, N7-butyl-1-[(5-{[(oxan-4-yl)amino]methyl}quinolin-8-yl)methyl]-1H-pyrazolo[4,3-d]pyrimidine-5,7-diamine] | 41.5 | 55.2 |
| CCC[C@@H](CCO)Nc1nc(N)nc2cnn(Cc3ccc(C4CCNCC4)c4cccnc34)c12 [Compound 141, (3S)-3-[(5-amino-1-{[5-(piperidin-4-yl)quinolin-8-yl]methyl}-1H-pyrazolo[4,3-d]pyrimidin-7-yl)amino]hexan-1-ol] | 0.3 | 21.7 |
| CCC[C@@H](CCO)Nc1nc(N)nc2cnn(Cc3ccc(C(=O)N4CC(O)C4)c4cccnc34)c12 [Compound 135, 1-{8-[(5-amino-7-{[(3S)-1-hydroxyhexan-3-yl]amino}-1H-pyrazolo[4,3-d]pyrimidin-1-yl)methyl]quinoline-5-carbonyl}azetidin-3-ol] | 80.1 | 126 |
